In US20180326022A1, “COMPOSITIONS AND METHODS FOR IMPROVING HEART FUNCTION AND TREATING HEART FAILURE” (The Trustees of the University of Pennsylvania, priority 2017, published 2018):

System: rat adult cardiomyocytes
Test: Immunofluorescence quantification of α- and dTyr-tubulin fraction of cell area
Format: cell-based
Procedure: Viral constructs were permitted to express for 24-72 hours with Moi=100-200. Parthenolide (Fisher Scientific NC9013142) treatment was carried out at room temperature for 2 hours at 10 μM. All experiments were performed within 48 hours of isolation, except those involving shTTL, which were allowed 72 hours to improve knockdown efficiency.
Cells were fixed in 4% PFA for 15 minutes and permeabilized in 0.5% TritonX-100 for 4 minutes at room temperature. Alternately cells were fixed in methanol at −20° C. for 7 minutes. After washing, cells were placed in blocking buffer (5% BSA and 0.1% TritonX-100 in PBS) for 1 hour, then labeled with primary antibodies (below) for 24-48 hours at 4° C. Cells were then washed 4× in blocking buffer, labeled with secondary antibodies (below) at room temperature and washed 3× in blocking buffer. Stained cells were mounted on mouse laminin coated #1.5 coverslips in Prolong Gold Antifade Mountant (Life Technologies P36934) for imaging.
Confocal imaging was carried out on a Zeiss 780 laser scanning confocal scan head operating on an Axiovert Z1 inverted microscope equipped with a 40× oil 1.4 NA objective. High-speed super resolution imaging was carried out on a Zeiss 880 Airyscan confocal with a 63×1.4 oil NA objective (FIG. 8A-FIG. 8E, Airyscan application note can be found at http://www.zeiss.com/microscopy/enus/products/confocal-microscopes/Ism-880-with-airyscan-.html#downloads). Image analysis was performed using ZEN Black software for Airyscan processing, which involves signal integration from the 32 separate sub-resolution detectors in the Airyscan detector and subsequent deconvolution of this integrated signal (FIG. 8A-FIG. 8E). Additional signal processing was performed in Image J (NIH). For calculating the microtubule fraction of cell area (FIG. 2B-FIG. 2C), image analysis was performed blinded to the experimental treatment groups. A 1.5 μm max intensity projection was produced from 3 0.5 μm confocal z-sections. […] From the resulting binary images (FIG. 9B), the microtubule positive fraction of the total cell area was calculated for alpha and detyrosinated tubulin (FIG. 2C).

[1] = rat cardiomyocytes, thresholded immunofluorescence, TTL vs null, PTL vs ctrl

C=C1C(=O)O[C@H]2[C@H]1CC/C(C)=C/CC[C@@]1(C)O[C@@H]21 [PTL, 4,5-epoxygermacra-1(10),11(13)-dien-12,6-olactone]
effect on MT network density (PTL treatment): no effect
reduction in the amount/fraction of polymerized, detyrosinated MTs (isolated rat cardiomyocytes, immunofluorescence and immunoblot): 2 fold
Detyr (% cell area) [1]: 30.8 % cell area
α-tub (% cell area) [1]: 67.8 % cell area
